Laboratory results from patent US10130676B2, “Therapeutic peptides for cerebrovascular diseases” (Prime Bio-Drug Development Limited, priority 2015, dated 2018).
Ends that are not written are not given here.

Key:
PC12 cells [1] = test: PC12 cell survival upon exposure to L-glutamic acid (MTT); format: cell-based, rat; details: 10 ug/ml for each peptide; 1 mM L-glutamic acid
Experimental: PC12 cells were obtained from the Chinese Academy of Medical Sciences, Beijing, China. To examine cell survival upon exposure to L-glutamic acid, PC12 cells were grown to confluence in 96 well plate in serum-free RPMI-1640. […] After 15-min incubation, medium was changed to serum-free RPMI-1640. After 24 h incubation, 100 μL MTT (final concentration 0.5 mg/ml) was added for additional 4 h incubation, and the cell survival was subsequently assessed by absorbance at 540 nm under a Fluostar microplate reader (BMG Germany).
(§1) Differences were considered significant at P<0.05.

PC12 cells [2] = test: PC12 cell survival under hypoglycemic, hypoxic or hypoglycemic-hypoxic conditions (MTT); details: for protective effect on PC12 from cell death under hypoglycemic and hypoxic conditions: 10 ug/ml for each peptide, 24 h; for protective effect against cell death induced by hypoxia / protective effects against cytotoxicity induced by hypoxia or by (hypoglycemia+hypoglycemia): peptide used individually; for protective effects against cytotoxicity induced by hypoxia or by (hypoglycemia+hypoglycemia): conditions as printed
Experimental: PC12 cells were propagated and cultured as described above. For hypoglycemic condition, 125 μM Cobaltous Chloride (CoCl2, Sigma, USA) was added into the culture media when PC12 cells were in monolayer for further 24 h incubation as described. For induction of hypoglycemia, culture media was changed to glucose-free Eagle's medium when PC12 grew to monolayer for additional 24 h incubation. For hypoglycemic and hypoxic conditions, PC12 cells were cultured in glucose-free Eagle's media with addition of 125 μM CoCl2. After 24 h, cells were harvested and subject to MTT assay.
Data were expressed as mean±standard error (SE) and multiple comparisons were evaluated by the analysis of variance and Neuman-Keuls test. Differences were considered significant at P<0.05. Neurological deficit data were evaluated by the nonparametric Mann-Whitney test.

PC12 cells [3] = test: PC12 cell survival upon exposure to H2O2 (MTT); format: cell-based, rat; details: 10 ug/ml for each peptide; 200 μM H2O2, 24 h
Experimental: To examine cell survival upon exposure to H2O2, PC12 cells were grown to confluence in 96 well plate and the medium was changed to serum-free medium containing 200 μM H2O2 (final volume 100 μl) for 24 h. […] After 24 h incubation, 100 μL MTT (final concentration 0.5 mg/ml) was added for additional 4 h incubation, and the cell survival was subsequently assessed by absorbance at 540 nm under a Fluostar microplate reader (BMG, Germany).
as §1

[4] = In vivo distribution of Cy5.5-conjugated peptides after i.v. injection (IVIS optical imaging); set-up: species or system C57B/L6 mice; details: for fluorescent intensity detected in the brain: 15 and 30 minutes after injection (FIG. 12); for fluorescent intensity detected in the spinal cord: 30 and 60 minutes after injection (FIG. 13)
From the text: The C57B/L6 mice (6˜8 week-old, female) were purchased from National Laboratory Animal Center, Taiwan. For optical imaging, animals were anesthetized by 2% isoflurane gas mixed with oxygen and intravenous injection (i.v.) of Cy5.5-conjugated peptide 1 or Cy5.5-conjugated peptide 5 (35 nmole/per mouse). After administration the mice were placed prone or supine in a dark box and a photographic image was first acquired at low light (exposure time: 5 seconds). At indicated time points after administration of probes, fluorescent signals were obtained using a CCD camera thermoelectrically cooled to −70° C. (Xenogen—IVIS® Spectrum Imaging System, Xenogen Technology). The photon integration period was 1-2 sec.

[5] = Stability test in solutions of different pH value (HPLC, MALDI-TOF); format: physicochemical; details: pH 2.0 to 8.5, 3 days, HPLC UV 220 nm
Experimental: (§2) Peptide-5 was dissolved in series of solution with different pH value and stood for 3 days. Adequate amount of each resulting solution was analyzed by HPLC (Agilent 1100 series) using a Nucleodur Pyramid C18 column (250 mm×4.6 mm, 5 μm) and gradient elution (0 min: 0.1% TFA in H2O; 10 min: 0.1% TFA in MeOH; 15 min: 0.1% TFA in MeOH) with 0.2 mL/min flow. The signals were monitored by UV detector at 220 nm wavelength. The sample collected in the stability test was also analyzed by MALDI-TOF Mass (Bruker Daltonics, Autoflex III) with 2,5-dihydroxybenzoic acid (DHB) as matrix. Furthermore, the portion respond to the signal at 7.8 min were collected and subject to MALDI-MS analysis. Peptide-5 was also prepared 50 μM in PBS and recorded from circular dichroism (Jasco, J-810).

[6] = Circular dichroism (CD) of the peptide in PBS; format: physicochemical; details: 50 μM in PBS
Experimental: as §2

Substance | protective effect on L-glutamic-acid-treated PC12 cells (PC12 cells [1]) | protective effect on PC12 from cell death under hypoglycemic and hypoxic conditions (PC12 cells [2]) | protective effect against cell death induced by hypoxia (PC12 cells [2]) | protective effects against cytotoxicity induced by hypoxia or by (hypoglycemia+hypoglycemia) (PC12 cells [2]) | protective effect on H2O2-treated neural cells (cell survival) (PC12 cells [3]) | fluorescent intensity detected in the brain [4] | fluorescent intensity detected in the spinal cord [4] | stability in solution with various pH value [5] | stability by CD (circular dichroism) [6]
DEAQETAVSSH-OH [Peptide 1] | a degree of protective effect | had the protective effect as well | some protective effect | no protective effects | a degree of protective effect | high fluorescent intensity | high fluorescent intensity | – | –
DEAQETAVSSHEQD-OH [Peptide 5] | a degree of protective effect | had the protective effect as well | some protective effect | no protective effects | a degree of protective effect | high fluorescent intensity | high fluorescent intensity | stable, even in a very acidic environment | extremely stable
